Laboratory results: patent US7414131B2, “Bicycloheteroarylamine compounds as ion channel ligands and uses thereof” (Renovis, Inc., priority 2003, dated 2008)
Counter-ions that a name gives are not always drawn.

Legend:
hVR1 = hVR1 (Homo sapiens, UniProt Q8NER1); assay: High throughput calcium imaging assay (Fura2, Flex Station) of VR1 antagonists; format: cell-based; settings: HEK 293 cells expressing hVR1; for % Inhibition @ 1 μM: 1 μM compound, inhibition of calcium ion influx; for IC50: concentrations 10 nM to 3.3 μM
From the text: VR1 protein is a heat-gated cation channel that exchanges about 10 calcium ions for every sodium ion resulting in neuronal membrane depolarization and elevated intracellular calcium ion levels. Therefore the functional activity of compounds at the VR1 receptor may be determined by measuring changes in intracellular calcium levels in 293 cells expressing capsaicin-insensitive VR1 receptor variants. A dual wavelength ratiometric dye, Fura2, was used as an indicator of relative levels of calcium ions in a 96 well format using a bench top scanning fluorometer with integrated fluidics and temperature control (Flex Station, Molecular Devices).
A dual wavelength ratiometric dye, Fura2, was used as an indicator of relative levels of [Ca2+] in a 96 well format using a bench top scanning fluorometer with integrated fluidics and temperature control (Flex Station, Molecular Devices).
HEK 293 cells expressing hVR1 were grown on PDL coated 96-well black-walled plates, in the presence of a DMEM medium containing 5% Penstrep, 5% Glutamax, 200 ug/mL Hygromycin, 5 μg/mL Blasticide and 10% heat inactivated FBS. Prior to assay, the cells were loaded with 5 μg/mL Fura2 in normal saline solution at 37° C. for 40 minutes. Cells were then washed with normal saline to remove the dye.
The assay consists of two stages; a pre-treatment phase followed by a treatment phase. In the pretreatment phase, 50 μl of a compound solution was added to the cells. Immediately following, 50 μl of the test compound in the presence of agonist (a saline solution plus 10 mM citric acid bufferd to pH 5.7 with HCl) was added. Fura2 was excited at […] to indicate relative calcium concentration. Changes in wavelength measurements were made throughout the course of the experiment in 4 second intervals over a period of 3 minutes. The fluorescence ratio from the excitations at […] was recorded for analysis. Responses were measured as peak fluorescence ratio after compound-agonist addition minus baseline fluorescence ratio prior to treatment and were calculated for each concentration tested using the SoftMaxPro software. Data was expressed as percentage inhibition calculated as follows: […]
A dose response curve was then determined, from which the IC50 of each compound was calculated.

[1] = Pharmacokinetic profile after intravenous and oral administration in rats; format: in vivo, rat; settings: IV 1 mg/kg, oral 5 mg/kg; for bioavailability / Vd / Cmax / Tmax: male, Sprague-Dawley; for bioavailability / Vd: plasma; for bioavailability / Vd / Cls (L/hrKg) / T/2: rat; for Vd / Cmax / Tmax / Cls (L/hrKg) / T/2: route of this column not given; for Cmax / Tmax: rat plasma
Protocol: The pharmacokinetic profile of Compound 1 was evaluated following intravenous and oral administration in rats. Sprague-Dawley male rats obtained from Charles River, San Diego, Calif. were acclimated for 24 hours.
Compounds of this invention were formulated at a concentration of 0.5 mg/mL for IV administration at a 1 mg/kg dose and 1 mg/mL for oral administration at a 5 mg/kg dose. All animals were weighed before dosing. The body weight was used to calculate the actual dose for each animal. The intravenous dose was administered through the jugular vein catheter in less than 1 minute. The oral dose volume was 1.5 mL for all PO rats administered through oral lavage.
For IV dosing, blood samples were collected using a pre-heparinized syringe via the caproic artery catheter before dosing and at t=2, 5, 15, 30, 60, 120, 180, 360, and 480 minutes post dosing. For PO dosing, blood samples were collected using a pre-heparinized syringe via the caproic artery catheter before dosing and at t=5, 15, 30, 60, 120, 180, 360, and 480 minutes post dosing. 250 uL of blood was obtained at each time point from each animal. Equal volumes of 0.9% normal saline were replaced to prevent dehydration. The whole blood samples were maintained on ice until centrifugation. Blood samples were centrifuged at 14,000 rpm for 10 minutes at 4° C., and the upper plasma layer was transferred into a clean vial and store at −80° C.

Sprague-Dawley male rats = assay: Carrageenan-induced thermal hyperalgesia, latency of paw withdrawal; format: in vivo; settings: rat, carrageenan hindpaw; 30 mg/kg dosed one hour after carrageenan; tested two hours later
Protocol: Sprague-Dawley male rats obtained from Charles River, San Diego, Calif. were purchased at 150-175 g, and held for at least one week before testing. Pain was induced by injecting 100 μl of 2% carrageenan in 0.9% saline sub-Q into the right ventral hindpaw while the animals were under isofluorane anesthesia. Animals were then dosed one hour after with a concentration of 30 mg/kg of Compound 1. Two hours later, after acclimatizing in testing chambers for 20-30 minutes, animals were tested on both hindpaws for latency of paw withdrawal using a thermal testing apparatus. 2-3 trials were conducted with 10 minutes between trials. […] The figure depicts the time in seconds until animals withdraw from thermal stimulation at baseline and two hours after administration of delivery vehicle, control compound, and the dose of 30 mg/kg of Compound 1.

hVR1, sequence (Q8NER1 whole entry): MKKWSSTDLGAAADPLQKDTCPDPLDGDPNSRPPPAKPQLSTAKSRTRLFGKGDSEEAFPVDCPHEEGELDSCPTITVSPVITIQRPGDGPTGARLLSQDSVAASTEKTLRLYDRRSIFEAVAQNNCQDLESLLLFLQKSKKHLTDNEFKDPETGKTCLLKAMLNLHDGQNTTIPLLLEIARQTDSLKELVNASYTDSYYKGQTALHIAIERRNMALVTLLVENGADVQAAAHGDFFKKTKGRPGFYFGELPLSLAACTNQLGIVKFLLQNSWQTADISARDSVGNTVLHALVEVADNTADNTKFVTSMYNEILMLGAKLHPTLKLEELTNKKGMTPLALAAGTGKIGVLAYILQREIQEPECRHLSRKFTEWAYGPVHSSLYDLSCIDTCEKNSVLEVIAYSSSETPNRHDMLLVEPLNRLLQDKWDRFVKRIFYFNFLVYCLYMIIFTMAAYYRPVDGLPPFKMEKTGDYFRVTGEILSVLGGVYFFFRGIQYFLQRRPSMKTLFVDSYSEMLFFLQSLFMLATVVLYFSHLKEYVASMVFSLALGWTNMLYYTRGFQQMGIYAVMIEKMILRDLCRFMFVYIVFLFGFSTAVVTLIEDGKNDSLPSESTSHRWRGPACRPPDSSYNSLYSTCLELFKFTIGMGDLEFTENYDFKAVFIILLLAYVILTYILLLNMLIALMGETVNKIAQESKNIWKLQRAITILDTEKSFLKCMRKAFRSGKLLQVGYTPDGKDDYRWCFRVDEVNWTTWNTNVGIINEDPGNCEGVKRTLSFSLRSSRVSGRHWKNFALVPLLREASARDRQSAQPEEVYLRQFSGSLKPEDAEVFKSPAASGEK

| Structure (SMILES) | % Inhibition @ 1 μM (hVR1) | also measured |
| --- | --- | --- |
| CC(C)S(=O)(=O)c1cccnc1N1CCc2c(ncnc2Nc2ccc(C(F)(F)F)cc2)C1 [Example 16, N-(4-(Trifluoromethyl)phenyl)-5,6,7,8-tetrahydro-7-(3-(isopropylsulfonyl)pyridin-2-yl)pyrido[3,4-d]pyrimidin-4-amine] | IA (IA inactive.) | – |
| Cc1ccccc1N1CCc2c(ncnc2Nc2ccc(C(F)(F)F)cc2)C1 [Example 45, N-(4-(Trifluoromethyl)phenyl)-5,6,7,8-tetrahydro-7-o-tolylpyrido[3,4-d]pyrimidin-4-amine] | IA (IA inactive.) | – |
| FC(F)(F)c1cccc(Nc2ncnc3c2CCN(c2ncccc2Cl)C3)c1 [Example 43, 7-(3-Chloropyridin-2-yl)-N-(3-(trifluoromethyl)phenyl)-5,6,7,8-tetrahydropyrido[3,4-d]pyrimidin-4-amine] | IA (IA inactive.) | – |
| c1ccc(CN2CCc3c(ncnc3Nc3ccc4c(c3)OCCO4)C2)cc1 [Example 30, (7-Benzyl-5,6,7,8-tetrahydro-pyrido[3,4-d]pyrimidin-4-yl)-(2,3-dihydro-benzo[1,4]dioxin-6-yl)-amine] | IA (IA inactive.) | – |
| Fc1ccc(Nc2ncnc3c2CCN(c2ncccc2Cl)C3)cc1 [Example 19, 7-(3-Chloropyridin-2-yl)-N-(4-fluorophenyl)-5,6,7,8-tetrahydropyrido[3,4-d]pyrimidin-4-amine] | +++ (“+++” compound exhibited 51-75% inhibition of calcium ion influx induced by capsaicin stimulation.) | bioavailability [1]: 5.66%; Vd [1]: 12.2 L/kg; Cmax [1]: 24.5 ng/mL; Tmax [1]: 40.8 min; Cls (L/hrKg) [1]: 4.47 L/hrKg; T/2 [1]: 1.9 h |
| FC(F)(F)c1ccc(Nc2ncnc3c2CCN(c2ncccc2C(F)(F)F)C3)cc1 [Example 12, (4-Trifluoromethyl-phenyl)-[7-(3-trifluoromethyl-pyridin-2-yl)-5,6,7,8-tetrahydro-pyrido[3,4-d]pyrimidin-4-yl]-amine] | – | IC50 (hVR1): > 1 µM |
| FC(F)(F)CCN1CCc2c(ncnc2Nc2ccc3c(c2)OCCO3)C1 [Example 7, (2,3-Dihydro-benzo[1,4]dioxin-6-yl)-[7-(3,3,3-trifluoro-propyl)-5,6,7,8-tetrahydro-pyrido[3,4-d]pyrimidin-4-yl]-amine hydrochloride] | IA (IA inactive.) | – |
| CS(=O)(=O)c1nc2c(c(Nc3ccc(C(F)(F)F)cc3)n1)CCN(c1ncccc1Cl)C2 [Example 25, [7-(3-Chloro-pyridin-2-yl)-2-methanesulfonyl-5,6,7,8-tetrahydro-pyrido[3,4-d]pyrimidin-4-yl]-(4-trifluoromethyl-phenyl)-amine] | IA (IA inactive.) | – |
| Cc1ccc(N2CCc3c(ncnc3Nc3ccc(C(F)(F)F)cc3)C2)cc1 [Example 47, N-(4-(Trifluoromethyl)phenyl)-5,6,7,8-tetrahydro-7-p-tolylpyrido[3,4-d]pyrimidin-4-amine] | IA (IA inactive.) | – |
| CN(C)CCNc1nc2c(c(Nc3ccc(C(F)(F)F)cc3)n1)CCN(c1ncccc1Cl)C2 [Example 32, 7-(3-Chloropyridin-2-yl)-N^2-(2-(dimethylamino)ethyl)-N^4-(4-(trifluoromethyl)phenyl)-5,6,7,8-tetrahydropyrido[3,4-d]pyrimidine-2,4-diamine] | IA (IA inactive.) | – |
| O=S(=O)(c1ccc(Nc2ncnc3c2CCN(c2ncccc2Cl)C3)cc1)C(F)(F)F [Example 22, 7-(3-Chloropyridin-2-yl)-5,6,7,8-tetrahydro-N-(4-(trifluoromethylsulfonyl)phenyl)pyrido[3,4-d]pyrimidin-4-amine] | IA (IA inactive.) | – |
| CC(C)(C)c1ccc(Nc2ncnc3c2CCN(Cc2ccccc2)C3)cc1 [Example 2, N-(4-tert-Butylphenyl)-7-benzyl-5,6,7,8-tetrahydropyrido[3,4-d]pyrimidin-4-amine] | IA (IA inactive.) | – |
| FC(F)(F)c1ccc(Nc2ncnc3c2CCN(c2ncccc2Cl)C3)cc1 [Example 1, 7-(3-Chloropyridin-2-yl)-N-(4-(trifluoromethyl)phenyl)-5,6,7,8-tetrahydropyrido[3,4-d]pyrimidin-4-amine] | – | latency of paw withdrawal (reversal of thermal hyperalgesia) (Sprague-Dawley male rats): significantly increased latency of paw withdrawal |
| COCc1nc2c(c(Nc3ccc(C(F)(F)F)cc3)n1)CCN(Cc1ccccc1)C2 [Example 31, 7-Benzyl-N-(4-(trifluoromethyl)phenyl)-5,6,7,8-tetrahydro-2-(methoxymethyl)pyrido[3,4-d]pyrimidin-4-amine] | IA (IA inactive.) | – |
| c1ccc(CN2CCc3c(ncnc3Nc3cnc4ccccc4c3)C2)cc1 [Example 38, 7-Benzyl-5,6,7,8-tetrahydro-N-(quinolin-3-yl)pyrido[3,4-d]pyrimidin-4-amine] | IA (IA inactive.) | – |
| CS(=O)(=O)c1cccnc1N1CCc2c(ncnc2Nc2ccc(S(=O)(=O)C(F)(F)F)cc2)C1 [Example 23, 5,6,7,8-tetrahydro-7-(3-(methylsulfonyl)pyridin-2-yl)-N-(4-(trifluoromethylsulfonyl)phenyl)pyrido[3,4-d]pyrimidin-4-amine] | + (“+” compound exhibited 0-25% inhibition of calcium ion influx induced by capsaicin stimulation.) | – |
| Clc1cccnc1N1CCc2c(ncnc2Nc2ccccc2)C1 [Example 18, 7-(3-Chloropyridin-2-yl)-5,6,7,8-tetrahydro-N-phenylpyrido[3,4-d]pyrimidin-4-amine] | ++ (“++” compound exhibited 26-50% inhibition of calcium ion influx induced by capsaicin stimulation.) | bioavailability [1]: 4.07%; Vd [1]: 18 L/kg; Cmax [1]: 44.6 ng/mL; Tmax [1]: 55.2 min; Cls (L/hrKg) [1]: 4.45 L/hrKg; T/2 [1]: 2.55 h |
| Cc1cccc(N2CCc3c(ncnc3Nc3ccc4c(c3)OCCO4)C2)c1 [Example 36, 5,6,7,8-Tetrahydro-N-(2,3-dihydrobenzo[b][1,4]dioxin-6-yl)-7-m-tolylpyrido[3,4-d]pyrimidin-4-amine] | – | IC50 (hVR1): 0.501 to 1 µM |
| FC(F)Oc1ccc(Nc2ncnc3c2CCN(c2ncccc2Cl)C3)cc1 [Example 15, 7-(3-Chloropyridin-2-yl)-N-(4-(difluoromethoxy)phenyl)-5,6,7,8-tetrahydropyrido[3,4-d]pyrimidin-4-amine] | IA (IA inactive.) | IC50 (hVR1): > 1 µM |
| FC(F)(F)c1ccc(Nc2ncnc3c2CCN(c2ccccc2)C3)cc1 [Example 44, N-(4-(Trifluoromethyl)phenyl)-5,6,7,8-tetrahydro-7-phenylpyrido[3,4-d]pyrimidin-4-amine] | IA (IA inactive.) | – |
